Each compound was assayed against T1, human EP3 receptor (Homo sapiens, UniProt P43115) (assay: Cellular in vitro assay for determining EP3 receptor activity (human EP3 cell line, sulprostone-stimulated calcium luminescence)). Details: CHO cells expressing human EP3 and mitochondrial Clytin; antagonist mode, sulprostone at EC50; read-out: EP3 CHO mtCLY ANTAG IC50.
T1 construct: expressed in transfected cells; host or cells: CHO K1 (Chinese Hamster Ovary), stably co-transfected with Galpha16 and mitochondrial clytin
T1 sequence (P43115 1-390): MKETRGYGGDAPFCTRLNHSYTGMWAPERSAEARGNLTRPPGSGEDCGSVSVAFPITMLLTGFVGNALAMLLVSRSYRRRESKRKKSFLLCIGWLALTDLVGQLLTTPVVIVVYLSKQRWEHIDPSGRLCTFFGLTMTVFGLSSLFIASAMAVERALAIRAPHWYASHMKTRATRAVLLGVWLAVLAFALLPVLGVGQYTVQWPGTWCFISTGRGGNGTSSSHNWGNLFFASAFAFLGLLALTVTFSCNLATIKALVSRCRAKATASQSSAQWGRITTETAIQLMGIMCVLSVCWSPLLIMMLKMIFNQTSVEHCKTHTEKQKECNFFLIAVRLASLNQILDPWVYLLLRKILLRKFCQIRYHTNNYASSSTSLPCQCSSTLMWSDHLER
Type: cell-based
How it was run: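 Antagonist activity was measured as inhibition of the luminescent calcium signal elicited by EC50 sulprostone, following 10 min compound pretreatment. The cell line was recombinant CHO K1 co-expressing human EP3, Gα16 and the photoprotein Clytin, reconstituted with coelenterazine.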

Compound	IC50 [nM]
Cc1cc(-c2cn3nc(C(=O)NC4(c5ccc(F)cc5)CN(CC(F)(F)F)C4)c(C4CC4)c3c(=O)[nH]2)ccc1Cl [6-344]	0.99
Cc1cc(-c2cn3nc(C(=O)NC(C)(C)C4CC4)c(C4CC4)c3c(=O)[nH]2)ccc1Cl [6-301]	1.4
Cc1cc(-c2cn3nc(C(=O)NC4(c5ccc(F)cc5)CN(CC(F)F)C4)c(C4CC4)c3c(=O)[nH]2)ccc1Cl [6-340]	1.02
COc1ccc(C(C)NC(=O)c2cc3c(=O)[nH]c(-c4ccc(Cl)c(C)c4)cn3n2)cn1 (stereo not drawn) [Example 1-107, 6-(4-Chloro-3-methylphenyl)-N-[1-(6-methoxypyridin-3-yl)ethyl]-4-oxo-4,5-dihydropyrazolo[1,5-a]-pyrazine-2-carboxamide]	3.97
Cc1ccc(-c2cn3nc(C(=O)N[C@@H](C)CO)c(C4CCC4)c3c(=O)[nH]2)cc1C [6-578]	2.3
CC(C)(O)[C@@H](NC(=O)c1nn2cc(-c3ccc(Cl)c(Cl)c3)[nH]c(=O)c2c1C1CCC1)c1ccc(F)cc1 [6-568]	1.05
Cc1c(C(=O)NC(C)(C)c2cc(Cl)cc(Cl)c2)nn2c(C)c(-c3ccc4ccccc4c3)[nH]c(=O)c12 [Example 3-30, N-[2-(3,5-Dichlorophenyl)propan-2-yl]-3,7-dimethyl-6-(naphthalen-2-yl)-4-oxo-4,5-dihydropyrazolo[1,5-a]pyrazine-2-carboxamide]	9.4
COCc1c(C(=O)N[C@H](C)c2ccc(F)cc2)nn2cc(-c3ccc4ccccc4c3)[nH]c(=O)c12 [Example 1-20, N-[(1R)-1-(4-Fluorophenyl)ethyl]-3-(methoxymethyl)-6-(naphthalen-2-yl)-4-oxo-4,5-dihydropyrazolo[1,5-a]pyrazine-2-carboxamide]	1.09
O=C(NC(c1ccc(F)cc1)C1(O)CC1)c1nn2cc(-c3ccc(Cl)c(F)c3)[nH]c(=O)c2c1C1CC1 (single isomer, unassigned) [6-97]	3.25
CC(C)c1c(C(=O)N[C@@H](c2ccc(F)cc2)C(F)(F)CO)nn2cc(-c3ccc(Cl)c(F)c3)[nH]c(=O)c12 [6-536]	3.8
CC(NC(=O)c1cc2c(=O)[nH]c(-c3ccc4ccccc4c3)cn2n1)c1ccccc1OC(F)F (stereo not drawn) [Example 2-50, N-{1-[2-(Difluormethoxy)phenyl]ethyl}-6-(2-naphthyl)-4-oxo-4,5-dihydropyrazolo[1,5-a]pyrazine-2-carboxamide]	1.15
COc1cc(-c2cn3nc(C(=O)N[C@@H](c4ccc(F)cc4)C(F)(F)CO)c(C4CC4)c3c(=O)[nH]2)ccc1Cl [6-486]	2.1
Cc1cccc2ncc(-c3cn4nc(C(=O)NCc5ccccn5)c(C(C)C)c4c(=O)[nH]3)cc12 [Example 4-26, 6-(5-Methylquinolin-3-yl)-4-oxo-3-(propan-2-yl)-N-[(pyridin-2-yl)methyl]-4,5-dihydropyrazolo[1,5-a]pyrazine-2-carboxamide]	2.75
N#Cc1c(C(=O)NC(CO)c2cc(Cl)cc(Cl)c2)nn2cc(-c3ccc4ccccc4c3)[nH]c(=O)c12 (stereo not drawn) [Example 3-76, 3-Cyano-N-[1-(3,5-dichlorophenyl)-2-hydroxyethyl]-6-(2-naphthyl)-4-oxo-5H-pyrazolo[1,5-a]pyrazine-2-carboxamide]	4.35
Cc1cccc2ncc(-c3cn4nc(C(=O)NC(C)c5ccccn5)c(C(C)C)c4c(=O)[nH]3)cc12 (stereo not drawn) [Example 4-54, 3-Isopropyl-6-(5-methyl-3-quinolyl)-4-oxo-N-[1-(2-pyridyl)ethyl]-5H-pyrazolo[1,5-a]pyrazine-2-carboxamide]	2
COC[C@H](C)NC(=O)c1nn2cc(-c3ccc4ccccc4c3)[nH]c(=O)c2c1C(F)(F)F [6-515]	3
O=C(NC(CCn1cncn1)c1ccccc1)c1cc2c(=O)[nH]c(-c3ccc4ccccc4c3)cn2n1 (stereo not drawn) [6-48]	5.7

Compound	IC50 [nM]
Cc1ccc(-c2cn3nc(C(=O)N[C@H](C)CO)c(C4CCC4)c3c(=O)[nH]2)cc1F [6-575]	1.95
O=C(NC1CCCc2ccccc21)c1cc2c(=O)[nH]c(-c3ccc4ccccc4c3)cn2n1 (stereo not drawn) [Example 2-32, 6-(2-Naphthyl)-4-oxo-N-[1,2,3,4-tetrahydronaphthalin-1-yl]-4,5-dihydropyrazolo[1,5-a]pyrazine-2-carboxamide]	2.8
Cc1cc(-c2cn3nc(C(=O)N[C@@H](c4ccc(F)cc4)C(F)(F)CO)c(C(C)C)c3c(=O)[nH]2)ccc1Cl [6-605]	3.8
COc1ccccc1C(C)NC(=O)c1cc2c(=O)[nH]c(-c3ccc4ccccc4c3)cn2n1 (stereo not drawn) [Example 2-8, N-[1-(2-Methoxyphenyl)ethyl]-6-(2-naphthyl)-4-oxo-4,5-dihydropyrazolo[1,5-a]pyrazine-2-carboxamide]	1.2
Cc1cccc2ncc(-c3cn4nc(C(=O)NC(C)c5ccc(F)cc5)c(C(C)C)c4c(=O)[nH]3)cc12 (stereo not drawn) [Example 4-11, N-[1-(4-Fluorophenyl)ethyl]-3-isopropyl-6-(5-methyl-3-quinolyl)-4-oxo-5H-pyrazolo[1,5-a]pyrazine-2-carboxamide]	0.735
COc1ccc(C2(NC(=O)c3nn4cc(-c5ccc(Cl)c(C)c5)[nH]c(=O)c4c3C3CC3)CN(C)C2)cc1 [6-303]	2.9
Cc1ccc(-c2cn3nc(C(=O)NC(CO)C(F)(F)F)c(C(F)(F)F)c3c(=O)[nH]2)cc1Cl (single isomer, unassigned) [6-163]	2.3
CC[C@@H](C)NC(=O)c1nn2cc(-c3ccc(Cl)c(C)c3)[nH]c(=O)c2c1C(F)(F)C(F)(F)F [6-479]	2.3
Cc1ccc(-c2cn3nc(C(=O)N[C@H](C)C4CC4)c(C(F)(F)F)c3c(=O)[nH]2)cc1Cl [6-172]	1.7
Cc1cccc2ncc(-c3cn4nc(C(=O)NC(c5ccc(F)cc5)C(C)C)c(C(C)C)c4c(=O)[nH]3)cc12 (stereo not drawn) [Example 4-51, N-[1-(4-Fluorophenyl)-2-methylpropyl]-3-isopropyl-6-(5-methyl-3-quinolyl)-4-oxo-5H-pyrazolo[1,5-a]pyrazine-2-carboxamide]	4.05
CN1CC(NC(=O)c2nn3cc(-c4ccc5ccccc5c4)[nH]c(=O)c3c2C(F)(F)F)(c2ccc(F)cc2)C1 [Example 1-32, N-[3-(4-Fluorophenyl)-1-methylazetidin-3-yl]-6-(naphthalen-2-yl)-4-oxo-3-(trifluoromethyl)-4,5-dihydropyrazolo[1,5-a]pyrazine-2-carboxamide]	1.6
Cc1ccc([C@H](C)NC(=O)c2nn3cc(-c4cnc5cccc(C)c5c4)[nH]c(=O)c3c2C(C)C)cc1 [Example 4-56, N-[(7S)-1-(4-Methylphenyl)ethyl]-6-(5-methylquinolin-3-yl)-4-oxo-3-(propan-2-yl)-4,5-dihydropyrazolo[1,5-a]pyrazine-2-carboxamide]	4
CC(C)(O)[C@@H](NC(=O)c1nn2cc(-c3ccc4c(c3)OCCO4)[nH]c(=O)c2c1C1CC1)c1ccc(F)cc1 [6-466]	5.4
Cc1cc(-c2cn3nc(C(=O)NC(c4ccc(F)cc4)C4(O)CC4)c(C4CC4)c3c(=O)[nH]2)ccc1F (single isomer, unassigned) [6-651]	1
O=C(NCCc1ccccc1F)c1cc2c(=O)[nH]c(-c3ccc4ccccc4c3)cn2n1 [Example 2-9, N-[2-(2-Fluorophenyl)ethyl]-6-(2-naphthyl)-4-oxo-4,5-dihydropyrazolo[1,5-a]pyrazine-2-carboxamide]	3.65
Cc1ccc(-c2cn3nc(C(=O)NCCC(O)C(F)(F)F)c(C4CC4)c3c(=O)[nH]2)cc1F (single isomer, unassigned) [6-368]	0.87

— patent US20220324865A1 (Bayer Aktiengesellschaft, priority 2018, published 2022)
